Like-named read-outs stand apart in the source and are kept apart here. Peptide text beside a SMILES is read from it.
What was measured:
NTSR1 = NTSR1 (Homo sapiens, UniProt P30989); type: binding
[1] = in situ brain perfusion assay; cited from earlier work
[2] = competition with [3H]-NT on HT29 cells expressing NTSR1

Chain of NTSR1 (P30989 whole entry, the tested form may be a part): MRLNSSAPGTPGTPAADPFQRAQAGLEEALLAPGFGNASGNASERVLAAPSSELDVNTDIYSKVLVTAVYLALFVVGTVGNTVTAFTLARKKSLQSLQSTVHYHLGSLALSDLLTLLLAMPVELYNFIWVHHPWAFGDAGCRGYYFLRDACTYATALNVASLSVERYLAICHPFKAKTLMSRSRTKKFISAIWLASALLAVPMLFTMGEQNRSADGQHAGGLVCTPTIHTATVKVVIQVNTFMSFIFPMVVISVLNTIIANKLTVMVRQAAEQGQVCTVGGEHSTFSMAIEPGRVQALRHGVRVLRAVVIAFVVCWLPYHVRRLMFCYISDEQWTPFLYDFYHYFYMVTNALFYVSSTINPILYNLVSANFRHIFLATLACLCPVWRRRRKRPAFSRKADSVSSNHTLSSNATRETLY

IC50 (NTSR1; HT29 cells, [3H]-NT, values in the text (FIGS. 21, 22)) | IC50 (NTSR1; [2]) | Compound | transport across the BBB relative to Angiopep-1 (250 nM) [1]
5390 nM | > 100 nM | CC[C@H](C)[C@H](NC(=O)[C@@H](Cc1ccc(O)cc1)NC(=O)[C@@H]1CCCN1C(=O)[C@H](CCCNC(=N)N)NC(=O)[C@H](CCCNC(=N)N)NC(=O)C(CCCCNC(=O)CCCCCN1C(=O)CC(SC[C@H](NC(=O)[C@H](Cc2ccc(O)cc2)NC(=O)[C@H](CCC(=O)O)NC(=O)[C@H](CCC(=O)O)NC(=O)[C@@H](NC(=O)[C@H](CCCCN)NC(=O)[C@H](Cc2ccccc2)NC(=O)[C@H](CC(N)=O)NC(=O)[C@H](CC(N)=O)NC(=O)[C@H](CCCNC(=N)N)NC(=O)[C@H](CCCCN)NC(=O)CNC(=O)[C@H](CCCNC(=N)N)NC(=O)[C@H](CO)NC(=O)CNC(=O)CNC(=O)[C@H](Cc2ccc(O)cc2)NC(=O)[C@H](Cc2ccccc2)NC(=O)[C@H](Cc2ccccc2)NC(=O)[C@@H](N)[C@@H](C)O)[C@@H](C)O)C(N)=O)C1=O)NC(C)=O)C(=O)N[C@@H](CC(C)C)C(=O)O (stereo partly drawn) [Ac-Lys-[D-Tyr^11]NT(8-13)-An2] | –
– | 1 nM | CC[C@H](C)[C@H](NC(=O)[C@H](Cc1ccc(O)cc1)NC(=O)[C@@H]1CCCN1C(=O)[C@H](CCCNC(=N)N)NC(=O)[C@H](CCCNC(=N)N)NC(=O)[C@H](CCCCN)NC(C)=O)C(=O)N[C@@H](CC(C)C)C(=O)O [AcLys-NT(8-13)] (Ac-KRRPYIL-OH) | –
– | – | T F F Y G G S R G K R N N F R T E E Y (TFFYGGSRGKRNNFRTEEY) [Angiopep-6] | 38.5%

— patent publication US9914754B2, “Conjugates of neurotensin or neurotensin analogs and uses thereof” (Angiochem Inc., priority 2008, dated 2018)
